Laboratory results published in ChEMBL document CHEMBL1151179, “Isolation of salicin derivatives from Homalium cochinchinensis and their antiviral activities” (J Nat Prod, 2004).

What was measured:
Assay type in all cases: functional, organism-based
Human alphaherpesvirus 2 = experiment: Antiviral activity against HSV2
Human alphaherpesvirus 1 = experiment: Antiviral activity against HSV1
[1] = test system: Human immunodeficiency virus 1; experiment: Antiviral activity against HIV1

SMILES	EC50 (Human alphaherpesvirus 2)	EC50 (Human alphaherpesvirus 1)	EC50 [1]
Nc1nc2c(ncn2COCCO)c(=O)[nH]1 [ACYCLOVIR]	1 µM	1.1 µM	
O=C(O[C@H]1[C@H](Oc2c(O)cccc2COC(=O)C2(O)C=CCCC2=O)O[C@H](CO)[C@@H](O)[C@@H]1O)c1ccccc1 (stereo partly specified) [COCHINCHISIDE B]	76 µM	76 µM	> 18 µM
O=C1OC2=C[C@@H](O)CCC2=C1C(O)c1ccccc1 (stereo partly specified) [COCHINOLIDE]	86 µM	31 µM	
O=c1[nH]cnc2c1ncn2[C@H]1CC[C@@H](CO)O1 [DIDANOSINE]			2.1 µM
O=C(O[C@H]1[C@H](Oc2ccccc2COC(=O)[C@]2(O)C=CCC[C@@H]2O)O[C@H](CO)[C@@H](O)[C@@H]1O)c1ccccc1 [TREMULACINOL]	> 188 µM	> 188 µM	
O=C(O[C@H]1[C@H](Oc2ccccc2COC(=O)C2(O)C=CCCC2=O)O[C@H](CO)[C@@H](O)[C@@H]1O)c1ccccc1 (stereo partly specified) [TREMULACIN]	86 µM	87 µM	52 µM
O=C(O[C@H]1[C@H](Oc2ccccc2CO)O[C@H](CO)[C@@H](O)[C@@H]1O)c1ccccc1 [TREMULDIN]	> 256 µM	> 256 µM	
Cc1cn([C@H]2C[C@H](N=[N+]=[N-])[C@@H](CO)O2)c(=O)[nH]c1=O [ZIDOVUDINE]			0.02 µM
